Experimental data taken from patent US20070021430A1, “Novel crystalline form of a phosphoric acid salt of a dipeptidyl peptidase-iv inhibitor” (priority 2003, published 2007).

Columns and labels:
[1] = solubility in water; format: physicochemical
[2] = solid-state stability / conversion of crystal form; format: physicochemical
Protocol: Form IV was prepared by heating the above monohydrate at 120° C. for about 2 h or by heating the monohydrate above 58° C. for about 8 h. Form IV is metastable and converts into the crystalline monohydrate slowly under ambient conditions and rapidly under high relative humidity (98%) at room temperature. Form IV can also be converted to anhydrate Form I in about 1 h at a temperature above 140° C.

solubility in water [1]: high
conversion into the crystalline monohydrate ([2]; ambient conditions): slowly
conversion into the crystalline monohydrate ([2]; high relative humidity (98%) at room temperature): rapidly
physical stability of the crystal form ([2]; solid state): metastable
time for conversion to anhydrate Form I ([2]; temperature above 140° C.): about 1 h
SMILES: N[C@@H](CC(=O)N1CCn2c(nnc2C(F)(F)F)C1)Cc1cc(F)c(F)cc1F [Form IV, (2R)-4-oxo-4-[3-(trifluoromethyl)-5,6-dihydro[1,2,4]triazolo[4,3-a]pyrazin-7(8H)-yl]-1-(2,4,5-trifluorophenyl)butan-2-amine dihydrogenphosphate anhydrate Form IV]
